≈ marks a conversion by molar mass, not a printed value.
Assays:
Format in all cases: in vivo
[1] = tested on: Eurasian watermilfoil; test: Fluroxypyr potassium salt vs ester formulation on Eurasian watermilfoil in small scale aquaria (Example 3); conditions: 24 h exposure, 4 WAT
Protocol: Materials and Methods: Eurasian watermilfoil was obtained from cultures. Two apical tips approximately 10 cm long were planted into each of 96, plastic containers (473 mL). The containers were filled with potting soil and amended with 2 g/L/soil Osmocote® fertilizer 19-6-12. A layer of sand was placed on top of the sediment in each container to prevent sediment re-suspension in the aquaria. Four containers of potted Eurasian watermilfoil were placed into each of 24 aquaria. Each aquaria was filled to a volume of 45 L and plants allowed to grow approximately 2-3 weeks prior to herbicide treatments or until plants were at or near the water surface. Pre-treatment biomass was harvested from extra aquaria set up with pots for this purpose. Biomass was harvested by cutting aboveground biomass of plants at the soil surface in the three pretreatment aquaria. Harvested plant material was placed into individually labeled paper bags, dried in a force air oven at 50 C for at least 48 h, and then weighed to assess biomass. […]
Each week, aquaria were rated for percent control on a 0-100% scale (0%=no control; 100% complete plant mortality). […] Differences between treatments were analyzed using ANOVA and means separated using a Fisher's Protected LSD test at a p≤0.05 significance level.

[2] = tested on: sago pondweed (Stuckenia pectinata); test: Native plant selectivity screening in aquaria, sago pondweed (Example 6); conditions: 50-3200 ug/L
Protocol: (§1) Materials and Methods: The study was conducted in an indoor aquaria facility. Elodea (Elodea canadensis) was obtained from cultures. Two apical tips approximately 10 cm long were planted into each of 48, plastic containers (16 oz. plastic cups). The containers were filled with potting soil and amended with 2 g/L Osmocote® fertilizer 19-6-12. A layer of sand was placed on top of the sediment in each container to prevent sediment re-suspension in the aquaria. Two containers of potted elodea were placed into each of 24 aquaria measuring 11.5 in×11.5 in×24 in. Additionally, sago pondweed (Stuckenia pectinata) tubers were obtained. The tubers were floated in shallow containers filled with water until new sprouts began to grow.
Once sprouted, two tubers were planted into 16 oz containers in a similar fashion as elodea. Two containers of potted sago pondweed were placed into each of the 24 aquaria, so that each aquarium had 4 potted plants (2 pots of each species). […]
At four weeks after treatment (WAT), plants were, harvested, sorted to aboveground biomass, dried in a forced air oven at 50 C for at least 48 h, and weighed for biomass determination (g/DW/aquaria). Differences between treatments were analyzed using an ANOVA, and if treatment differences were detected; means were separated using a Tukey's All-Pairwise comparison test. […]

[3] = tested on: Elodea (Elodea canadensis); test: Native plant selectivity screening in aquaria, elodea (Example 6); conditions: static exposure; for Elodea biomass vs untreated reference plants: four WAT
Protocol: as §1
Once sprouted, two tubers were planted into 16 oz containers in a similar fashion as elodea. Two containers of potted sago pondweed were placed into each of the 24 aquaria, so that each aquarium had 4 potted plants (2 pots of each species). Each aquarium was filled to a volume of 45 L and plants allowed to grow approximately 3-4 weeks prior to herbicide treatments or until plants were at or near the water surface. Supplemental lighting was provided using Agrobrite growth lamps on a 12:12 light:dark cycle. After the plants reached the desired level of growth, a liquid formulation of fluroxypyr ester was applied as a concentrated aqueous solution at the concentrations outlined in Table 9. An untreated reference was also included for comparison purposes. All herbicide applications were made using a static exposure and replicated 3 times. […] Water was added to the aquaria as needed to maintain the desired 45 L volume of water.
At four weeks after treatment (WAT), plants were, harvested, sorted to aboveground biomass, dried in a forced air oven at 50 C for at least 48 h, and weighed for biomass determination (g/DW/aquaria). Differences between treatments were analyzed using an ANOVA, and if treatment differences were detected; means were separated using a Tukey's All-Pairwise comparison test. All analyses were conducted at a p≤0.05 significance level. Additionally, regression models were fit to elodea biomass data in order to estimate the EC50 concentration under the current experimental design.

[4] = tested on: Eurasian watermilfoil; test: Fluroxypyr potassium salt formulations vs ester on Eurasian watermilfoil under mesocosm conditions (Example 4); conditions: 200 ug/L, 24 h exposure, 4 WAT
Protocol: Eurasian watermilfoil was obtained from cultures. Two apical tips approximately 15 cm long were planted into each of 204, plastic containers (940 mL). The containers were filled with potting soil and amended with 2 g/L/soil Osmocote® fertilizer 19-6-12. Four containers of potted Eurasian watermilfoil were placed into each of 51 mesocosm tanks. Tanks were filled to a volume of 257 L and plants allowed to grow approximately 2-3 weeks prior to herbicide treatments, or until plants were at or near the water surface. Pre-treatment biomass was harvested from three tanks set up with pots for this purpose. Biomass was harvested by collecting aboveground biomass of plants from all of the pots in each of the pretreatment tanks. Plant material was placed into individually labeled paper bags, dried in a force air oven at 50 C for at least 48 h, and then weighed to assess biomass,
After pre-treatment data collection, liquid herbicides were applied as a concentrated aqueous formulation using the rates and products outlined in Table 6. […]
Four weeks after treatment (WAT), living plants were, harvested, sorted to aboveground biomass (if any), dried in a forced air oven at 50 C for at least 48 h, and weighed for biomass determination. Differences between treatments were analyzed using ANOVA with treatment means separated using a Fisher's Protected LSD test at a p≤0.05 significance level.

## CCCCCCC(C)OC(=O)COc1nc(F)c(Cl)c(N)c1Cl (stereo not drawn) [Fluroxypyr ester, [(4-amino-3,5-dichloro-6-fluoro-2-pyridinyl)oxy]acetic acid, 1-methylheptyl ester]
[1]; 200 ug/L
  Eurasian watermilfoil biomass reduction: 100%
[1]; 400 ug/L
  Eurasian watermilfoil biomass reduction: 100%
[2]; four weeks of static exposure
  adverse effects on sago pondweed: did not exhibit any adverse effects
[2]; throughout the study, static exposure
  visible herbicide symptoms on sago pondweed: no visible herbicide symptoms
[3]; 400 ug/L or higher
  Elodea biomass vs untreated reference plants: reduced
[3]; 50, 100, and 200 ug/L
  Elodea biomass vs untreated reference plants: similar
[3]; Elodea canadensis, 4 WAT, aquaria, read-out: EC50 for elodea (biomass, regression model)
  EC50: 0.356 µg/mL (≈ 0.969 µM)
[3]; within one WAT, transient in the lower concentration treatments
  herbicide symptoms on elodea: epinastic twisting and bending
[4]
  Eurasian watermilfoil biomass reduction: 98%

Reference: patent publication US20190208782A1, “PROCESSING COMPOSITION FOR C[…] WEEDS” (Arch Chemicals, Inc., priority 2018, published 2019)
